# Measured values as given in the NIST ThermoML archive (doi:10.1021/je900091b).
# Numbers after ± are expanded uncertainties.
# Assay: xn = mol fraction of the nth substance listed
# Conditions: Liquid
smiles,measurement,setting,value
C=C(C)C(=O)OC [methyl methacrylate] + CCCCn1cc[n+](C)c1.F[P-](F)(F)(F)(F)F,mass density,"313.15 K, x1 = 0.5993",1183.05 ± 1.1 kg/m3
same,viscosity,"313.15 K, x1 = 0.5993",7.55 ± 0.15 mPa·s
same,mass density,"313.15 K, x1 = 0.7009",1135.06 ± 0.93 kg/m3
same,viscosity,"313.15 K, x1 = 0.7009",4.379 ± 0.098 mPa·s
same,mass density,"313.15 K, x1 = 0.8003",1078.32 ± 0.73 kg/m3
same,viscosity,"313.15 K, x1 = 0.8003",2.175 ± 0.051 mPa·s
same,mass density,"313.15 K, x1 = 0.9007",1009.49 ± 0.48 kg/m3
same,viscosity,"313.15 K, x1 = 0.9007",1.092 ± 0.027 mPa·s
same,mass density,"313.15 K, x1 = 1",920.185 ± 0.66 kg/m3
same,viscosity,"313.15 K, x1 = 1",0.4719 ± 0.013 mPa·s
same,mass density,"318.15 K, x1 = 0.0986",1331.15 ± 1.6 kg/m3
same,viscosity,"318.15 K, x1 = 0.0986",62.99 ± 1.1 mPa·s
same,mass density,"318.15 K, x1 = 0.2094",1305.41 ± 1.5 kg/m3
same,viscosity,"318.15 K, x1 = 0.2094",38.91 ± 0.66 mPa·s
same,mass density,"318.15 K, x1 = 0.3073",1279.94 ± 1.4 kg/m3
same,viscosity,"318.15 K, x1 = 0.3073",25.49 ± 0.45 mPa·s
same,mass density,"318.15 K, x1 = 0.4053",1251.13 ± 1.3 kg/m3
same,viscosity,"318.15 K, x1 = 0.4053",16.71 ± 0.3 mPa·s
same,mass density,"318.15 K, x1 = 0.4977",1218.64 ± 1.2 kg/m3
same,viscosity,"318.15 K, x1 = 0.4977",10.9 ± 0.21 mPa·s
same,mass density,"318.15 K, x1 = 0.5993",1178.39 ± 1.1 kg/m3
same,viscosity,"318.15 K, x1 = 0.5993",6.745 ± 0.14 mPa·s
same,mass density,"318.15 K, x1 = 0.7009",1130.19 ± 0.92 kg/m3
same,viscosity,"318.15 K, x1 = 0.7009",3.99 ± 0.09 mPa·s
same,mass density,"318.15 K, x1 = 0.8003",1073.17 ± 0.71 kg/m3
same,viscosity,"318.15 K, x1 = 0.8003",2.007 ± 0.047 mPa·s
same,mass density,"318.15 K, x1 = 0.9007",1004 ± 0.47 kg/m3
same,viscosity,"318.15 K, x1 = 0.9007",1.026 ± 0.026 mPa·s
same,mass density,"318.15 K, x1 = 1",914.317 ± 0.68 kg/m3
same,viscosity,"318.15 K, x1 = 1",0.4497 ± 0.013 mPa·s
same,mass density,"323.15 K, x1 = 0.0986",1327 ± 1.6 kg/m3
same,viscosity,"323.15 K, x1 = 0.0986",51.32 ± 0.28 mPa·s
same,mass density,"323.15 K, x1 = 0.2094",1301.17 ± 1.5 kg/m3
same,viscosity,"323.15 K, x1 = 0.2094",32.45 ± 0.56 mPa·s
same,mass density,"323.15 K, x1 = 0.3073",1275.58 ± 1.4 kg/m3
same,viscosity,"323.15 K, x1 = 0.3073",21.7 ± 0.38 mPa·s
same,mass density,"323.15 K, x1 = 0.4053",1246.74 ± 1.3 kg/m3
same,viscosity,"323.15 K, x1 = 0.4053",14.51 ± 0.27 mPa·s
same,mass density,"323.15 K, x1 = 0.4977",1214.13 ± 1.2 kg/m3
same,viscosity,"323.15 K, x1 = 0.4977",9.64 ± 0.19 mPa·s
same,mass density,"323.15 K, x1 = 0.5993",1173.73 ± 1.1 kg/m3
same,viscosity,"323.15 K, x1 = 0.5993",6.066 ± 0.13 mPa·s
same,mass density,"323.15 K, x1 = 0.7009",1125.33 ± 0.9 kg/m3
same,viscosity,"323.15 K, x1 = 0.7009",3.653 ± 0.083 mPa·s
same,mass density,"323.15 K, x1 = 0.8003",1068.01 ± 0.7 kg/m3
same,viscosity,"323.15 K, x1 = 0.8003",1.868 ± 0.044 mPa·s
same,mass density,"323.15 K, x1 = 0.9007",998.489 ± 0.46 kg/m3
same,viscosity,"323.15 K, x1 = 0.9007",0.9687 ± 0.025 mPa·s
same,mass density,"323.15 K, x1 = 1",908.405 ± 0.69 kg/m3
same,viscosity,"323.15 K, x1 = 1",0.4294 ± 0.013 mPa·s
same,mass density,"328.15 K, x1 = 0.0986",1322.85 ± 1.6 kg/m3
same,viscosity,"328.15 K, x1 = 0.0986",42.36 ± 0.72 mPa·s
same,mass density,"328.15 K, x1 = 0.2094",1296.92 ± 1.5 kg/m3
same,viscosity,"328.15 K, x1 = 0.2094",27.39 ± 0.48 mPa·s
same,mass density,"328.15 K, x1 = 0.3073",1271.14 ± 1.4 kg/m3
same,viscosity,"328.15 K, x1 = 0.3073",18.69 ± 0.33 mPa·s
same,mass density,"328.15 K, x1 = 0.4053",1242.36 ± 1.3 kg/m3
same,viscosity,"328.15 K, x1 = 0.4053",12.71 ± 0.24 mPa·s
same,mass density,"328.15 K, x1 = 0.4977",1209.65 ± 1.2 kg/m3
same,viscosity,"328.15 K, x1 = 0.4977",8.585 ± 0.17 mPa·s
same,mass density,"328.15 K, x1 = 0.5993",1169.08 ± 1.1 kg/m3
same,viscosity,"328.15 K, x1 = 0.5993",5.497 ± 0.12 mPa·s
same,mass density,"328.15 K, x1 = 0.7009",1120.46 ± 0.88 kg/m3
same,viscosity,"328.15 K, x1 = 0.7009",3.362 ± 0.077 mPa·s
same,mass density,"328.15 K, x1 = 0.8003",1062.85 ± 0.68 kg/m3
same,viscosity,"328.15 K, x1 = 0.8003",1.743 ± 0.042 mPa·s
same,mass density,"328.15 K, x1 = 0.9007",992.98 ± 0.47 kg/m3
same,viscosity,"328.15 K, x1 = 0.9007",0.9201 ± 0.023 mPa·s
same,mass density,"328.15 K, x1 = 1",902.468 ± 0.71 kg/m3
same,viscosity,"328.15 K, x1 = 1",0.41 ± 0.012 mPa·s
same,mass density,"333.15 K, x1 = 0.0986",1318.71 ± 1.6 kg/m3
same,viscosity,"333.15 K, x1 = 0.0986",35.43 ± 0.61 mPa·s
same,mass density,"333.15 K, x1 = 0.2094",1292.66 ± 1.5 kg/m3
same,viscosity,"333.15 K, x1 = 0.2094",23.38 ± 0.41 mPa·s
same,mass density,"333.15 K, x1 = 0.3073",1267.36 ± 1.4 kg/m3
same,viscosity,"333.15 K, x1 = 0.3073",16.24 ± 0.29 mPa·s
same,mass density,"333.15 K, x1 = 0.4053",1237.99 ± 1.3 kg/m3
same,viscosity,"333.15 K, x1 = 0.4053",11.22 ± 0.21 mPa·s
same,mass density,"333.15 K, x1 = 0.4977",1205.17 ± 1.2 kg/m3
same,viscosity,"333.15 K, x1 = 0.4977",7.691 ± 0.16 mPa·s
same,mass density,"333.15 K, x1 = 0.5993",1164.44 ± 1 kg/m3
same,viscosity,"333.15 K, x1 = 0.5993",4.991 ± 0.11 mPa·s
same,mass density,"333.15 K, x1 = 0.7009",1115.59 ± 0.87 kg/m3
same,viscosity,"333.15 K, x1 = 0.7009",3.111 ± 0.071 mPa·s
same,mass density,"333.15 K, x1 = 0.8003",1057.67 ± 0.66 kg/m3
same,viscosity,"333.15 K, x1 = 0.8003",1.629 ± 0.039 mPa·s
same,mass density,"333.15 K, x1 = 0.9007",987.485 ± 0.49 kg/m3
same,viscosity,"333.15 K, x1 = 0.9007",0.915 ± 0.023 mPa·s
same,mass density,"333.15 K, x1 = 1",896.479 ± 0.73 kg/m3
same,viscosity,"333.15 K, x1 = 1",0.3938 ± 0.012 mPa·s
same,mass density,"343.15 K, x1 = 0.0986",1310.46 ± 1.6 kg/m3
same,viscosity,"343.15 K, x1 = 0.0986",25.61 ± 0.45 mPa·s
same,mass density,"343.15 K, x1 = 0.2094",1284.51 ± 1.5 kg/m3
same,viscosity,"343.15 K, x1 = 0.2094",17.56 ± 0.32 mPa·s
same,mass density,"343.15 K, x1 = 0.3073",1259.32 ± 1.4 kg/m3
same,viscosity,"343.15 K, x1 = 0.3073",12.57 ± 0.23 mPa·s
same,mass density,"343.15 K, x1 = 0.4053",1229.29 ± 1.3 kg/m3
same,viscosity,"343.15 K, x1 = 0.4053",8.922 ± 0.18 mPa·s
same,mass density,"343.15 K, x1 = 0.4977",1196.23 ± 1.2 kg/m3
same,viscosity,"343.15 K, x1 = 0.4977",6.278 ± 0.13 mPa·s
same,mass density,"343.15 K, x1 = 0.5993",1155.17 ± 1 kg/m3
same,viscosity,"343.15 K, x1 = 0.5993",4.187 ± 0.094 mPa·s
same,mass density,"343.15 K, x1 = 0.7009",1105.84 ± 0.83 kg/m3
same,viscosity,"343.15 K, x1 = 0.7009",2.708 ± 0.062 mPa·s
same,mass density,"343.15 K, x1 = 0.8003",1047.29 ± 0.62 kg/m3
same,viscosity,"343.15 K, x1 = 0.8003",1.431 ± 0.035 mPa·s
same,mass density,"343.15 K, x1 = 0.9007",976.413 ± 0.52 kg/m3
same,viscosity,"343.15 K, x1 = 0.9007",0.8545 ± 0.022 mPa·s
same,mass density,"343.15 K, x1 = 1",884.418 ± 0.76 kg/m3
same,viscosity,"343.15 K, x1 = 1",0.3636 ± 0.011 mPa·s
same,mass density,"353.15 K, x1 = 0.0986",1302.23 ± 1.5 kg/m3
same,viscosity,"353.15 K, x1 = 0.0986",19.25 ± 0.34 mPa·s
same,mass density,"353.15 K, x1 = 0.2094",1275.98 ± 1.4 kg/m3
same,viscosity,"353.15 K, x1 = 0.2094",13.65 ± 0.25 mPa·s
same,mass density,"353.15 K, x1 = 0.3073",1250.71 ± 1.3 kg/m3
same,viscosity,"353.15 K, x1 = 0.3073",10.01 ± 0.19 mPa·s
same,mass density,"353.15 K, x1 = 0.4053",1220.62 ± 1.2 kg/m3
same,viscosity,"353.15 K, x1 = 0.4053",7.259 ± 0.15 mPa·s
same,mass density,"353.15 K, x1 = 0.4977",1187.32 ± 1.1 kg/m3
same,viscosity,"353.15 K, x1 = 0.4977",5.224 ± 0.12 mPa·s
same,mass density,"353.15 K, x1 = 0.5993",1145.91 ± 0.98 kg/m3
same,viscosity,"353.15 K, x1 = 0.5993",3.579 ± 0.081 mPa·s
same,mass density,"353.15 K, x1 = 0.7009",1096.08 ± 0.8 kg/m3
same,viscosity,"353.15 K, x1 = 0.7009",2.415 ± 0.056 mPa·s
same,mass density,"353.15 K, x1 = 0.8003",1036.87 ± 0.59 kg/m3
same,viscosity,"353.15 K, x1 = 0.8003",1.272 ± 0.031 mPa·s
same,mass density,"353.15 K, x1 = 0.9007",965.13 ± 0.55 kg/m3
same,viscosity,"353.15 K, x1 = 0.9007",0.781 ± 0.02 mPa·s
same,mass density,"353.15 K, x1 = 1",872.129 ± 0.8 kg/m3
same,viscosity,"353.15 K, x1 = 1",0.3398 ± 0.011 mPa·s
